# Assay results as given in patent US20260001834A1, “COMPOUND OR SALT THEREOF, LIPID COMPOSITION, PHARMACEUTICAL COMPOSITION, AND DELIVERY CARRIER” (FUJIFILM Corporation, priority 2023, published 2026).
# Columns and labels:
# [1] = Particle diameter and polydispersity index (PdI) of mRNA-encapsulating lipid nanoparticles; type: physicochemical; settings: EPO mRNA-encapsulating lipid nanoparticles, compound:DSPC:cholesterol:DMG-PEG2000=50:10:38.5:1.5; diluted with PBS
# Experimental: (§1) The compounds shown in Table 9, 1,2-distearoyl-sn-glycero-3-phosphocholine (product name: COATSOME® MC-8080; NOF corporation) (hereinafter, DSPC), cholesterol (product name: Cholesterol HP; Nippon Seika Co., Ltd.), and 1,2-dimyristoyl-rac-glycero-3-(methylpolyoxyethylene 2000) (hereinafter, DMG-PEG2000) (product name: SUNBRIGHT® GM-020; NOF corporation) were dissolved in ethanol at a molar ratio (mol %) of compounds shown in Table 9:1,2-distearoyl-sn-glycero-3-phosphocholine:cholesterol:DMG-PEG2000=50:10:38.5:1.5 such that the total lipid concentration was 12.5 mmol/L, thereby obtaining an oil phase.
# (§2) EPO mRNA (product name: CleanCap EPO mRNA (5moU); TriLink) was diluted with 50 mmol/L citrate buffer having a pH 4.0 such that the weight ratio of total lipid concentration to mRNA concentration is about 20:1, thereby obtaining a water phase. Then, the water phase and the oil phase were mixed together using NanoAssemblr (Precision NanoSystems) such that the volume ratio of water phase:oil phase was 3:1, and the mixed solution was 2-fold diluted with phosphate buffered physiological saline (PBS) or water, thereby obtaining a dispersion liquid of mRNA lipid nanoparticles. The dispersion liquid was dialyzed with 20 mM Tris buffer solution containing 8% sucrose using a dialysis cassette (Slide-A-Lyzer G2, MWCO: 10 kD, Thermo Fisher Scientific) to remove ethanol, thereby obtaining EPO mRNA-encapsulating lipid nanoparticles.
# The particle diameter and the polydispersity index (PdI) of the mRNA-encapsulating lipid nanoparticles were obtained by measuring a dispersion liquid of lipid nanoparticles diluted with phosphate buffered physiological saline (PBS) using a particle size analyzer NanoSAQLA (Otsuka Electronics Co., Ltd.).
# [2] = Encapsulation rate of mRNA in lipid nanoparticles; type: physicochemical; settings: EPO mRNA-encapsulating lipid nanoparticles, compound:DSPC:cholesterol:DMG-PEG2000=50:10:38.5:1.5
# Experimental: as §1, §2
# <Evaluation of Encapsulation Rate of mRNA> (Quantification of Total mRNA Concentration)
# EPO mRNA was diluted with MilliQ water to prepare a diluted sample in 2-fold dilution series from 100 μg/mL to 3.1 μg/mL, and a standard solution for calibration was prepared. 50 μL of the standard solution for calibration or the mRNA lipid nanoparticles was mixed with 450 μL of methanol to prepare a measurement solution.
# The absorbance of each measurement solution at 260 nm and 330 nm was measured using a UV plate reader (Multiskan Go, Thermo Fisher Scientific), the absorbance at 330 nm was subtracted from the absorbance at 260 nm, and the result was used as the absorbance of each measurement solution. The total water phase nucleic acid concentration was calculated from the calibration curve using the absorbance of each sample measurement solution.
# (Quantification of mRNA Concentration in Outer Water Phase)
# The concentration of the outer water phase nucleic acid was quantified by a standard addition method using a QuanT-iT RiboGreen RNA Assay Kit (Thermo Fisher Scientific). First, a 20×TE buffer included in the above kit was diluted with water, thereby obtaining a 1×TE buffer. TE represents Tris/EDTA (ethylenediaminetetraacetic acid). EPO mRNA was diluted with a TE buffer such that the final concentration was 0 to 400 ng/mL to prepare a nucleic acid diluted series. 10 μL of mRNA lipid nanoparticles diluted 5-fold with TE buffer and 90 μL of a nucleic acid dilution series were mixed in a 96-well plate, 100 μL of a Ribogreen reagent diluted 200-fold with TE buffer was added to each well, and then fluorescence (excitation wavelength: 485 nm, fluorescence wavelength: 535 nm) was measured using a fluorescence plate reader (Infinite 200 Pro M nano+, TECAN). From the obtained results, the outer water phase nucleic acid concentration of each measurement solution was calculated according to the standard addition method.
# (Calculation of Encapsulation Rate)
# By using the quantification results of the total mRNA concentration and the mRNA concentration in the outer water phase that were obtained through the above steps, the mRNA encapsulation rate of the mRNA lipid nanoparticles was calculated according to the following Equation.
# ICR mice [3] = assay: EPO expression level in mice after intravenous EPO mRNA lipid nanoparticles (human EPO ELISA of plasma); type: in vivo; settings: mRNA dosage 0.1 mg/kg, plasma 6 hours after administration, Comparative Example set to 1
# Experimental: as §1, §2
# (§3) The dispersion liquid of mRNA lipid nanoparticles prepared in above <Preparation of EPO mRNA-encapsulating lipid nanoparticles> was intravenously administered to ICR mice at a mRNA dosage of 0.1 mg/kg. 6 hours after the administration, blood was collected from the caudal vena cava, thereby obtaining plasma. The human EPO […] was quantified by using the obtained blood plasma and Erythropoietin (EPO) Human Elisa Kit (Abcam.plc). The quantitative value is described as a relative amount of EPO protein in a case where Comparative Example is set to 1.
# ICR mice [4] = assay: EPO expression level in mice, dose dependency (human EPO ELISA of plasma); type: in vivo; settings: intravenous, plasma 6 hours after administration
# Experimental: as §1, §2
# as §3, with “0.1, 0.5, and 1” for “0.1”, “where the amount of EPO protein at the time of 0.1 mg/kg administration in” for “where”
Compound,Particle diameter (nm) [1] [nm],PdI [1],Nucleic acid encapsulation rate [2] [%],Relative amount of EPO protein (with respect to Comparative Example 1) (ICR mice [3]),Relative amount of EPO protein (with respect to Comparative Example 1 at 0.1 mg/kg) (ICR mice [4]; mRNA dosage 0.1 mg/kg),Relative amount of EPO protein (with respect to Comparative Example 1 at 0.1 mg/kg) (ICR mice [4]; mRNA dosage 0.5 mg/kg),Relative amount of EPO protein (with respect to Comparative Example 1 at 0.1 mg/kg) (ICR mice [4]; mRNA dosage 1.0 mg/kg)
"CCCCCCCC(=O)OCCN(CCOC(=O)OC(CCCCCC)CCCC(=O)OCC(CCCC)CCCCCC)CCN(CC)CC (stereo not shown) [Comparative Example, 2-butyloctyl 3-ethyl-12-hexyl-6-(2-(octanoyloxy)ethyl)-10-oxo-9,11-dioxa-3,6-diazahexadecan-16-oate, reference compound]",161,0.07,50,1.00,1.00,0.25,1.10
"CCCCCCCOC(=O)CCCC(CCCCCC)OC(=O)OCCN(CCOC(=O)C(CCCCCCC)CCCCCCC)CCN(CC)CC (stereo not shown) [Compound 3, heptyl 3-ethyl-6-(2-((2-heptylnonanoyl)oxy)ethyl)-12-hexyl-10-oxo-9,11-dioxa-3,6-diazahexadecan-16-oate]",105,0.06,84,3.16,1.91,17.26,27.22
"CCCCCCCCC(CCCCCCCC)C(=O)OCCN(CCCN(CC)CC)CCOC(=O)OC(CCCCCC)CCCCC(=O)OCCCCCCC (stereo not shown) [Compound 23, heptyl 3-ethyl-13-hexyl-7-(2-((2-octyldecanoyl)oxy)ethyl)-11-oxo-10,12-dioxa-3,7-diazaoctadecan-1 8-oate]",85,0.11,95,4.71,4.97,25.74,43.74
"CCCCCCCCC(CCCCCC)C(=O)OCCN(CCCN(CC)CC)CCOC(=O)OC(CCCCCC)CCCCC(=O)OCCCCCCC (stereo not shown) [Compound 24, heptyl 3-ethyl-13-hexyl-7-(2-((2-hexyldecanoyl)oxy)ethyl)-11-oxo-10,12-dioxa-3,7-diazaoctadecan-18-oate]",98,0.13,94,6.54,4.65,26.81,45.73
